From BigSolDB 2.1

CC(=O)N1CCN(c2ccc(O)cc2)CC1
solubility (mole fraction)
Settings	283.15 K	288.15 K	293.15 K	298.15 K	303.15 K	308.15 K	313.15 K	318.15 K	323.15 K
in 2-butoxyethanol	0.00309	0.00373	0.00457	0.00537	0.00617	0.00726	0.00852	0.0102	0.0118
in 2-ethoxyethanol	0.00486	0.0059	0.00705	0.00829	0.00963	0.0112	0.0134	0.0156	0.0179
in 2-methoxyethanol	0.00715	0.00822	0.00968	0.0114	0.0133	0.0153	0.0181	0.0212	0.0242
in 2-propoxyethanol	0.00403	0.00474	0.00574	0.00686	0.00813	0.00951	0.011	0.0128	0.015
in acetonitrile	0.001	0.00124	0.0015	0.00181	0.00217	0.00259	0.00304	0.00359	0.00433
in ethanol	0.00218	0.00273	0.00328	0.00396	0.00467	0.00551	0.00634	0.00749	0.00887
in ethylene glycol	0.000479	0.000658	0.000921	0.00123	0.00167	0.00225	0.00293	0.00405	0.00538
in isobutanol	0.00108	0.00141	0.00172	0.00214	0.00251	0.00292	0.00353	0.00415	0.00508
in isopropanol	0.00132	0.00165	0.00204	0.00263	0.00327	0.00418	0.00526	0.00636	0.00796
in methanol	0.00286	0.00346	0.00411	0.00485	0.00581	0.00679	0.00806	0.00952	0.0111
in n-butanol	0.00119	0.00151	0.00186	0.00232	0.00298	0.00392	0.00488	0.00612	0.00765
in n-propanol	0.00179	0.00206	0.00238	0.00306	0.00372	0.00459	0.00561	0.00683	0.00829
